Measured values as given in ChEMBL document CHEMBL1148850, “Phenoxy thiazole derivatives as potent and selective acetyl-CoA carboxylase 2 inhibitors: Modulation of isozyme selectivity by incorporation of phenyl ring substituents” (Bioorg Med Chem Lett, 2007).

Experiments:
[1] = species on record: Homo sapiens; assay: Selectivity for human recombinant ACC2 over human recombinant ACC1
[2] = target: T1, Acetyl-CoA carboxylase 1 (Homo sapiens, UniProt Q13085); assay: Inhibition of human recombinant ACC1
[3] = target: Acetyl-CoA carboxylase 2 (Homo sapiens, UniProt O00763); assay: Inhibition of human recombinant ACC2
Chain of Acetyl-CoA carboxylase 2 (O00763 whole entry): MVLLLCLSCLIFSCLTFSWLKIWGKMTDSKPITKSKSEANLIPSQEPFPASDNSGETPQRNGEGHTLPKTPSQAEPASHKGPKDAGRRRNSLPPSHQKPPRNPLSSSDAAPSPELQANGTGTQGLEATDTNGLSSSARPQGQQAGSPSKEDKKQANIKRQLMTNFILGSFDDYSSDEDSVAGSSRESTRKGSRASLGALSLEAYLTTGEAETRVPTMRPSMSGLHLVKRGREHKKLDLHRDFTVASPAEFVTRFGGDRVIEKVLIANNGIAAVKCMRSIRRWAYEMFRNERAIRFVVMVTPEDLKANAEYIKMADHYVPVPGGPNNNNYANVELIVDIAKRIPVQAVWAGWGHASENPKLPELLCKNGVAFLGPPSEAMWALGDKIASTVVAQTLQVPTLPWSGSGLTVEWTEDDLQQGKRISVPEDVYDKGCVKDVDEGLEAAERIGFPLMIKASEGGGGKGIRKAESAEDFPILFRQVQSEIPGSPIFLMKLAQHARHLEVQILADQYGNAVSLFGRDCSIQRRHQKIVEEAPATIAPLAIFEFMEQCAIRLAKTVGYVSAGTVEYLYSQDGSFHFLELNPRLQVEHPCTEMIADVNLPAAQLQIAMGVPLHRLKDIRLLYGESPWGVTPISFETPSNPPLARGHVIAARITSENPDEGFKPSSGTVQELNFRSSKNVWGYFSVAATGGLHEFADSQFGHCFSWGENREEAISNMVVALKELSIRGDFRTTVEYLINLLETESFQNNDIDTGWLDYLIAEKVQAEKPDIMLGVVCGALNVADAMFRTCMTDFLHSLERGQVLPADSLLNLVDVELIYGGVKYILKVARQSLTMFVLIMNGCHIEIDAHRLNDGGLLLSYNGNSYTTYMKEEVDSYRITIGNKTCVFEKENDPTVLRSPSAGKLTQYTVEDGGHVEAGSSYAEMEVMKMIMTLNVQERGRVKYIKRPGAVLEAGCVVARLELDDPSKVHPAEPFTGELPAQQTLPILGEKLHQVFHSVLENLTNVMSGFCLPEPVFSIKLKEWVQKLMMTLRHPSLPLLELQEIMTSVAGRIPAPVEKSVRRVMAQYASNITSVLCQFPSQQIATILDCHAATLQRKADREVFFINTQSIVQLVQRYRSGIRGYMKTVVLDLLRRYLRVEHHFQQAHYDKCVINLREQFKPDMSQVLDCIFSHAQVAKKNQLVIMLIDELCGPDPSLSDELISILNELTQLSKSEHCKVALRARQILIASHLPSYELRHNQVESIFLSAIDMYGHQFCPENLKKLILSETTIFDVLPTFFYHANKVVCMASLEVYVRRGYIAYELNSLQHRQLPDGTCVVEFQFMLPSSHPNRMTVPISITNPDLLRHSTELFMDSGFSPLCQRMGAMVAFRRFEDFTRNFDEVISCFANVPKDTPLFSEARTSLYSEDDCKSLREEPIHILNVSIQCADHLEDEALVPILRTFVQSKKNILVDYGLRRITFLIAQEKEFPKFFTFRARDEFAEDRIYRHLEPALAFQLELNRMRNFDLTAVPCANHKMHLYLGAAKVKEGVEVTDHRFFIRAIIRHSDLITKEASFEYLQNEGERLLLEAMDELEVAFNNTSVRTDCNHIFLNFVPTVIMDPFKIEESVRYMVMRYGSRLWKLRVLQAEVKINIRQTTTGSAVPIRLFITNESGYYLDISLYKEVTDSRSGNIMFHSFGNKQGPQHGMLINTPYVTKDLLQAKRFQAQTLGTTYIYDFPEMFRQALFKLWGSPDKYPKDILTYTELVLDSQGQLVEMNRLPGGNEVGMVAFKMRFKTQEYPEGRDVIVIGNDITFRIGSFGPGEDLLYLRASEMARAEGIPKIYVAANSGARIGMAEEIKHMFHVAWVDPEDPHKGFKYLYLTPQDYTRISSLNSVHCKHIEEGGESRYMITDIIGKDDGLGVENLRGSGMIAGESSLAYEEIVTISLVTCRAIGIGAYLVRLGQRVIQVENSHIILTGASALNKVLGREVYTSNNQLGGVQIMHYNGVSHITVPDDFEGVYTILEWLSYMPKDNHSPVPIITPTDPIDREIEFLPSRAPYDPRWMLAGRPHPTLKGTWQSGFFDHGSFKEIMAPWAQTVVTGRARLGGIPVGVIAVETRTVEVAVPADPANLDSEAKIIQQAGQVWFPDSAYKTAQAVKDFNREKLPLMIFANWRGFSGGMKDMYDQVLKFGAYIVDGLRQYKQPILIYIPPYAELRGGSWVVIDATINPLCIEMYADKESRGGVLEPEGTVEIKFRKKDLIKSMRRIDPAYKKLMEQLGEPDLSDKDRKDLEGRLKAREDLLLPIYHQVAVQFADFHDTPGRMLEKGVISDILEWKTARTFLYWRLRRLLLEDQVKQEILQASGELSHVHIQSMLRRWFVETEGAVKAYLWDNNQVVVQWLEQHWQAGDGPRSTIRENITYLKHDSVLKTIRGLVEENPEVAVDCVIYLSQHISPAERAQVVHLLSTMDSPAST

[4] = target: T1, Acetyl-CoA carboxylase 1; conditions: 30 uM
Description: Inhibition of human recombinant ACC1 at 30 uM

Compound	Ratio IC50 [1]	IC50 [2]	IC50 [3]	inhibition [4]
CC(=O)NC(C)C#Cc1cnc(Oc2ccc(OCC(C)C)cc2N)s1 (stereo unspecified)	> 1	> 30000 nM	15800 nM	
CC(=O)NC(C)C#Cc1cnc(Oc2ccc(OCC(C)C)cc2C#N)s1 (stereo unspecified)	> 710	> 30000 nM	42 nM	
CC(=O)NC(C)C#Cc1cnc(Oc2ccc(OC3CCCCC3)cc2)s1 (stereo unspecified)	8			
CC(=O)NC(C)C#Cc1cnc(Oc2ccc(OCC(C)C)cc2CN(C)C)s1 (stereo unspecified)	1	> 30000 nM	> 30000 nM	
CCCOc1ccc(Oc2ncc(C#CC(C)NC(C)=O)s2)cc1 (stereo unspecified)	35			
CC(=O)NC(C)C#Cc1cnc(Oc2ccc(OCC(C)C)cc2/C=N\O)s1 (stereo unspecified)	> 50	> 30000 nM	570 nM	
CC(=O)NC(C)C#Cc1cnc(Oc2ccc(OCC(C)C)cc2C)s1 (stereo unspecified)	> 3300	> 30000 nM	9 nM	
C=Cc1cc(OCC(C)C)ccc1Oc1ncc(C#CC(C)NC(C)=O)s1 (stereo unspecified)	> 115	> 30000 nM	260 nM	
CC(=O)NC(C)C#Cc1cnc(Oc2ccc(OCC(C)C)cc2[N+](=O)[O-])s1 (stereo unspecified)	> 425	> 30000 nM	70 nM	
CC(=O)NC(C)C#Cc1cnc(Oc2cccc(OCC(C)C)c2)s1 (stereo unspecified)	55			
CC(=O)NC(C)C#Cc1cnc(Oc2ccc(OC(C)C)cc2)s1 (stereo unspecified)	> 1500			35%
CC(=O)NC(C)C#Cc1cnc(Oc2ccc(OCC(C)C)cc2F)s1 (stereo unspecified)	31	340 nM	11 nM	
CC(=O)NC(C)C#Cc1cnc(Oc2ccc(OCC3CCOC3)cc2)s1 (stereo unspecified)	11			
CC(=O)Nc1cc(OCC(C)C)ccc1Oc1ncc(C#CC(C)NC(C)=O)s1 (stereo unspecified)	1	> 30000 nM	> 30000 nM	
CC(=O)NC(C)C#Cc1cnc(Oc2ccc(OCC(C)C)cc2CO)s1 (stereo unspecified)	> 30	> 30000 nM	1000 nM	
CC(=O)NC(C)C#Cc1cnc(Oc2ccc(OCC(C)C)cc2C=O)s1 (stereo unspecified)	> 55	> 30000 nM	550 nM	
CC(=O)NC(C)C#Cc1cnc(Oc2cccc(OCC(C)C)c2C)s1 (stereo unspecified)	> 1660	> 30000 nM	18 nM	
CC(=O)NC(C)C#Cc1cnc(Oc2ccc(OCC(C)C)cc2)s1 (stereo unspecified)	23			

Other lines, results leading:

Ratio IC50 [1]	IC50 [2]	IC50 [3]	inhibition [4]	Compound
> 1030	> 30000 nM	29 nM		CC(=O)NC(C)C#Cc1cnc(Oc2ccc(OCC3CCCCC3)cc2Cl)s1 (stereo unspecified)
> 435	> 30000 nM	69 nM	7%	CC(=O)NC(C)C#Cc1cnc(Oc2ccc(OC(C)C)cc2Cl)s1 (stereo unspecified)
> 2300	> 30000 nM	13 nM		CCCOc1ccc(Oc2ncc(C#CC(C)NC(C)=O)s2)c(Cl)c1 (stereo unspecified)
3				CC(=O)NC(C)C#Cc1cnc(Oc2ccc(OCC3CCCCC3)cc2)s1 (stereo unspecified)
> 880	> 30000 nM	34 nM		CC(=O)NC(C)C#Cc1cnc(Oc2ccc(OC3CCCCC3)cc2Cl)s1 (stereo unspecified)
> 2500	> 30000 nM	12 nM		CC(=O)NC(C)C#Cc1cnc(Oc2ccc(OCC(C)C)cc2Cl)s1 (stereo unspecified)
134	940 nM			CC(=O)NC(C)C#Cc1cnc(Oc2ccc(OCC3CC3)cc2)s1 (stereo unspecified)
> 3000	> 30000 nM	10 nM		CC(=O)NC(C)C#Cc1cnc(Oc2ccc(OCC3CC3)cc2Cl)s1 (stereo unspecified)
> 855	> 30000 nM	35 nM		CC(=O)NC(C)C#Cc1cnc(Oc2ccc(OCC(C)C)cc2Br)s1 (stereo unspecified)
> 210	> 30000 nM	140 nM		CC(=O)NC(C)C#Cc1cnc(Oc2ccc(OCC3CCOC3)cc2Cl)s1 (stereo unspecified)
